According to patent US10315990B2, “Isothiocyanate compounds and isothiocyanate XPO1 protein inhibitor drugs thereof” (DRIVINGFORCE THERAPEUTICS Co., Ltd., priority 2015, dated 2019):

Key:
XPO1 protein = biological target: T1, XPO1 protein (Homo sapiens, UniProt O14980); test: Inhibitory activity for XPO1 protein (NES-GFP nuclear export, laser confocal microscope); format: cell-based; settings: NES-GFP nuclear export, cells treated for 2 hours
T1 construct: Sixteen hours later, NES-GFP plasmid was transfected with liposome; endogenous in cells
T1 sequence (O14980 whole entry, species assumed): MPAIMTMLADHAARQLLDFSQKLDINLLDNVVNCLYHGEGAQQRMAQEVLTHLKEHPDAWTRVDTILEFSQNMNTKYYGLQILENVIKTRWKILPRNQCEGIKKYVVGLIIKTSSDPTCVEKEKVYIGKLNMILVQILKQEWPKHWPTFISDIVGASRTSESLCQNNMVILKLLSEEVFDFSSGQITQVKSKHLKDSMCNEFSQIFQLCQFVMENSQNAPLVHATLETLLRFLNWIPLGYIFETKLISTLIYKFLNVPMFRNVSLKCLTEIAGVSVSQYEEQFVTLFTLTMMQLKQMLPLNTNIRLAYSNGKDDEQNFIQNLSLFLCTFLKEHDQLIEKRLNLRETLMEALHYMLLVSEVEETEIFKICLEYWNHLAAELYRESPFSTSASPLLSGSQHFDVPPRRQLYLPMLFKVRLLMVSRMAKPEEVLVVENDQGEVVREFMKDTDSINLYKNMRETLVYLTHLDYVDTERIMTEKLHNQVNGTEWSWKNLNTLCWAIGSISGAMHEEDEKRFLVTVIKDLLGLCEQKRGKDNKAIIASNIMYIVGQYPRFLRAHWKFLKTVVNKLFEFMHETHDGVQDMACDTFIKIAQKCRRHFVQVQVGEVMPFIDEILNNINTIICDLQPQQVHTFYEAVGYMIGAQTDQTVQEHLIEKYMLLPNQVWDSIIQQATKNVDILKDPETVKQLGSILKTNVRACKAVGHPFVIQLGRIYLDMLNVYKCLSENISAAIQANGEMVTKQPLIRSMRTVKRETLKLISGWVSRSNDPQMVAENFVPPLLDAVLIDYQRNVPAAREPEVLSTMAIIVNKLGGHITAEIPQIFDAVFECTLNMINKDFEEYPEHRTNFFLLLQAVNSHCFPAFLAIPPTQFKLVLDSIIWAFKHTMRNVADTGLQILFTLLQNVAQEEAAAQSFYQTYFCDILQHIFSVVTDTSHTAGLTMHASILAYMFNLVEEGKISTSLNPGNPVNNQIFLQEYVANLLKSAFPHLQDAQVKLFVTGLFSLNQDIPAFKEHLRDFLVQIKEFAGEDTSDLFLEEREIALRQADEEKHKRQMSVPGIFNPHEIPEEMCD
Text: NES (nuclear export signal) is a nuclear export signal peptide recognized by XPO1 protein. XPO1 recognizes NES sequence peptide segment of biomacromolecule and exports the biomacromolecule out of nucleus. NES-GFP protein is obtained by co-expressing green fluorescence protein GFP and NES sequence peptide segment by using a eukaryotic expression plasmid. Inhibitory activity of the representative compound for XPO1 protein can be assessed by detecting influence of the compound on NES-GFP cell localization.
The cells were digested with trypsin, counted, and inoculated on 96-well plate in an amount of 1.5×10^4 cells per well. Sixteen hours later, NES-GFP plasmid was transfected with liposome.

IBD animal model = test: Macroscopic pathological changes of IBD animal model (enteroclysis with TNBS); format: in vivo, SD rats; settings: TNBS rats; for Macroscopic pathological score: 80 mg/kg intragastrically daily, score 0-5, 10 animals
Procedure: Eight-week-old male SD rats (10 rats per group) were fasted for 24 hours and anaesthetized with diethyl ether. 50% ethanol and TNBS (2,4,6-trinitrobenzenesulfonic acid) were mixed to prepare a solution. In the IBD model group, a tube made of vinyl resin was inserted 5 cm from anus, and enteroclysis was performed with the TNBS solution in a dose of 100 mg/kg. The rats were hung upside down 30 seconds later after the enteroclysis to ensure no leakage of the TNBS solution. In the control group, the TNBS solution was replaced with normal saline with which enteroclysis was performed. Seven days later after the enteroclysis with the TNBS solution or normal saline, animals were sacrificed and dissected. […] Two weeks later after treated with the drugs, the animals were sacrificed and dissected, and large intestine thereof was taken out and fixed in 4% formalin solution for 30 minutes. The large intestine of the animals was cut lengthwise from the mesentery side to take photos for rectum portion and measure the weight of rectum. Based on the macroscopic observation and judgment score (Table 2-1), ulceration and bleeding states of rectum portion were scored according to the macroscopic observation scoring standard.

TNF-α = test: Serum TNF-α level of IBD animal model (ELISA); format: in vivo, SD rats; settings: 80 mg/kg, three days after making the TNBS model
Text: (§1) Inflammatory bowel disease is an autoimmune disease. […] The therapeutic effect of the representative compound for the immune system disease or inflammation can be assessed by detecting change in levels of some important cytokines such as TNF-α and IL-6 at downstream of the signal path.

IL-6 = test: Serum IL-6 level of IBD animal model (ELISA); format: in vivo, SD rats; settings: 80 mg/kg, three days after making the TNBS model
Text: as §1

HMLE-Snail cell line = test: Formation of HMLE-Snail cell line spheroids; format: cell-based; settings: 10 μg/ml, treated for 24 hours; control = 100; read-out: Colony (%): cell colony number of drug-treated group/cell colony number of control group × 100%
Procedure: HMLE-Snail cell line is one of most classic cell models for studying tumor cell metastasis and EMT path. HMLE-Snail cell line highly expresses Snail protein, and thus one of most remarkable features thereof is that it has spherical cellular morphology (spheroid). […] The HMLE-Snail cell line used in the present invention was donated by Dr. Robert Weinberg from America Massachusetts Whitehead Institute. HMLE-Snail cells were suspended in a liquid culture medium (in which B-27 and N-2 were added, purchased from America Invitrogen Corporation) containing DMEM/F12 in a ratio of 1:1, in an amount of 1.0×10^3 cells/ml, and cultured in an ultra low attachment culture plate so as to allow spheroids to be formed. Seven days later, spheroids were collected by centrifugation, and counted. […] Docetaxel is a common clinical chemotherapy drug.

NCI-H1650 = test: cells; format: cell-based; settings: Homo sapiens; NCI-H1650, 72 hours; read-out: IC50
Procedure: (§2) NCI-H1975 and NCI-H1650 are two typical high metastasis type lung cancer cell lines. The therapeutic effect of the representative compound for the metastasis type lung cancers can be preliminarily assessed by detecting the inhibitory activity of the representative compound for the two cell lines. The lung cancer cell line was inoculated on 96-well cell culture plate in an amount of 6000 cells per well and cultured at 37° C. for 24 hours, and then treated solely with the compound added therein and cultured. Seventy-two hours later, MTT or CCK-8 method was used to detect the inhibitory activity of the compound for the two lung cancer cell lines.

NCI-H1975 = test: cells; format: cell-based; settings: Homo sapiens; NCI-H1975, 72 hours; read-out: IC50
Procedure: as §2

HCT116 = test: Inhibitory activity for high metastasis type colon cancer cell line (MTT or CCK-8); format: cell-based; settings: Homo sapiens, HCT-116; HCT116, 72 hours; read-out: IC50
Procedure: (§3) SW620 and HCT116 are two typical high metastasis type colon cancer cell lines. The colon cancer cell line was inoculated on 96-well cell culture plate in an amount of 6000 cells per well and cultured at 37° C. for 24 hours, and then treated solely with the compound added therein and cultured. Seventy-two hours later, MTT or CCK-8 method was used to detect the inhibitory activity of the compound for the two high metastasis type colon cancer cell lines.

SW620 = test: as above; format: cell-based; settings: Homo sapiens, SW-620; SW620, 72 hours; read-out: IC50
Procedure: as §3

Jeko-1 = test: Inhibitory activity for high metastasis type lymphoma cell line (MTT or CCK-8); format: cell-based; settings: Homo sapiens; Jeko-1, 72 hours; read-out: IC50
Procedure: (§4) Jeko-1, Raji and U2932 are three typical high metastasis type lymphoma cell lines. The lymphoma cell line was inoculated on 96-well cell culture plate in an amount of 6000 cells per well and cultured at 37° C. for 24 hours, and then treated solely with the compound added therein and cultured. Seventy-two hours later, MTT or CCK-8 method was used to detect the inhibitory activity of the compound for the two high metastasis type lymphoma cell lines.

Raji = test: as above; format: cell-based; settings: Homo sapiens, 72 hours, read-out: IC50
Procedure: as §4

U2932 = test: as above; format: cell-based; settings: Homo sapiens; U2932, 72 hours; read-out: IC50
Procedure: as §4

[1] = tested on: SK-OV3 (high metastasis type ovarian cancer cell line); test: Ovarian cancer intraperitoneal metastasis animal model; format: in vivo, nudemice (BALB/c-nu/nu); settings: Mus musculus, SK-OV-3, ip; for response vs control in vivo at 80 mg/kg: 504 h, 80 mg/kg intraperitoneal injection once a day for 3 weeks, read-out: T/C (%); for mortality at 80 mg/kg: 720 h, six mice per group, read-out: Mortality (within 30 days) (converted)
Procedure: The ovarian cancer intraperitoneal metastasis animal model is one of most classic animal models for studying anti-ovarian cancer metastasis drug. Sixty 5 to 6-week-old female nudemice with similar weight (BALB/c-nu/nu) were chosen. SK-OV3 (high metastasis type ovarian cancer cell line) stably expressing green fluorescence protein was screened, and prepared into a cell suspension of 2×10^6 cells/100 μl with serum-free PRMI1640 medium. […] Three weeks later, the cancer was detected with a small animal in vivo imaging apparatus (Xenogen, School of Medicine, Shanghai Jiaotong University) and photos thereof were taken. […] In the table, T represents the drug-treated group, and C represents the blank control group. T/C is (V/V0 of compound-treated group)/(V/V0 of blank control group) in which V represents the cancer volume of mouse on the day the detection was performed, and V0 represents the cancer volume of mouse on the day the administration begun.

Panc-1 = test: Inhibitory activity for other high metastasis type cancer cell line (MTT or CCK-8); format: cell-based; settings: Homo sapiens; Panc-1, 72 hours; read-out: IC50
KYSE-70 = test: as above; format: cell-based; settings: Homo sapiens; KYSE-70, 72 hours; read-out: IC50
Saos-2 = test: as above; format: cell-based; settings: Homo sapiens; Saos-2, 72 hours; read-out: IC50
786-O = test: as above; format: cell-based; settings: Homo sapiens, 786-0; 786-O, 72 hours; read-out: IC50
CaSki = test: as above; format: cell-based; settings: Homo sapiens, Ca-Ski; CaSki, 72 hours; read-out: IC50
A2780 = test: Inhibitory activity for high metastasis type ovarian cancer cell line (MTT or CCK-8); format: cell-based; settings: Homo sapiens; A2780, 72 hours; read-out: IC50
Procedure: (§5) The two cell lines were inoculated on 96-well cell culture plate in an amount of 6000 cells per well and cultured at 37° C. for 24 hours, and then treated solely with the representative compound added therein and cultured. Seventy-two hours later, MTT or CCK-8 method was used to detect the inhibitory activity of the representative compound for the high metastasis type ovarian cancer cell lines.

HO-8910 = test: as above; format: cell-based; settings: HO-8910, 72 hours; read-out: IC50
Procedure: as §5

| Compound | Activity (μM): inhibitory activity for XPO1 protein (full inhibitory concentration) (XPO1 protein) [µM] | Macroscopic pathological score (IBD animal model) | Serum TNF-α level, Animal-1 (TNF-α) [ng/mL] | Serum TNF-α level, Animal-2 (TNF-α) [ng/mL] | Serum TNF-α level, Animal-3 (TNF-α) [ng/mL] | Serum IL-6 level, Animal-1 (IL-6) [ng/mL] | Serum IL-6 level, Animal-2 (IL-6) [ng/mL] | Serum IL-6 level, Animal-3 (IL-6) [ng/mL] | activity at 10 µg/mL (HMLE-Snail cell line) [%] | IC50 (NCI-H1650) [µM] | IC50 (NCI-H1975) [µM] | IC50 (HCT116) [µM] | IC50 (SW620) [µM] | IC50 (Jeko-1) [µM] | IC50 (Raji) [µM] | IC50 (U2932) [µM] | response vs control in vivo at 80 mg/kg [1] [%] | mortality at 80 mg/kg [1] [%] | IC50 (A2780) [µM] | IC50 (HO-8910) [µM] | also measured |
| --- | --- | --- | --- | --- | --- | --- | --- | --- | --- | --- | --- | --- | --- | --- | --- | --- | --- | --- | --- | --- | --- |
| CS/C=C/CCN=C=S [Compound F-06, reference compound] | 15 to 20 | 3.5 ± 0.2 | 2.3 | 2.0 | 2.2 | 2.8 | 2.5 | 2.3 | 70 to 75 | 16.3 | 17.2 | 15.6 | 17.8 | 12 | 13.5 | 14.7 | 80 | 16.7 | – | – | – |
| [O-][S+](/C=C/CCN=C=S)c1ccc(Cl)c(C(F)(F)F)c1 (centres unmarked) [Compound I-03] | 0.5 to 1 | – | 1.3 | 1.1 | 0.7 | 0.9 | 0.8 | 0.7 | 25 to 30 | – | – | – | – | – | – | – | – | – | – | – | IC50 (Panc-1): 1.6 µM; IC50 (KYSE-70): 1.8 µM; IC50 (Saos-2): 2.6 µM; IC50 (786-O): 1.3 µM; IC50 (CaSki): 1.5 µM |
| [O-][S+](/C=C/CCN=C=S)c1nnnn1-c1ccccc1 (centres unmarked) [Compound I-25] | – | 1.5 ± 0.3 | 1.0 | 0.5 | 0.8 | 0.6 | 0.7 | 0.5 | 10 to 15 | 0.22 | 0.25 | – | – | 0.15 | 0.18 | 0.25 | – | – | 0.7 | 0.3 | – |
| [O-][S+](/C=C/CCN=C=S)c1ccc(Oc2ccccc2)cc1 (centres unmarked) [Compound I-27] | 0.5 to 1 | – | – | – | – | – | – | – | 25 to 30 | – | – | – | – | – | – | – | 25 | 0 | 1.2 | 0.8 | – |
| S=C=NCCc1ccccc1 [PEITC, phenylethylisothiocyanate, reference compound] | 30 | 3.5 ± 0.3 | 2.0 | 1.9 | 2.0 | 2.2 | 2.1 | 2.1 | 85 | – | – | 8.4 | 10.2 | 8.7 | 9.3 | 11.7 | 71 | 0 | 17.6 | 15.5 | colon tissue bleeding and ulceration phenomena (in words) (IBD animal model; 80 mg/kg): small relief extent |
